Consider 2 compounds from paper PMC4766392, “Identification and Characterization of the Glucose-6-Phosphate Dehydrogenase Gene Family in the Para Rubber Tree, Hevea brasiliensis” (Frontiers in Plant Science, 2016).

Common to all, as to experiment: NADPH formation at […] nm, commercial kit, E. coli supernatant
Holding throughout (format): biochemical
Common to all, as to conditions: 25°C, MBP fusion, empty-vector control

One test deals with T1, HbG6PDH4 (Hevea brasiliensis, UniProt A0A068LJB4).
T1 construct: gene G6PDH-4; primer with start codon ATGTCGATGTCAATTTC

The target in another test is T2, HbG6PDH2 (Hevea brasiliensis, UniProt A0A068LJJ9).
T2 construct: gene G6PDH-2; forward primer starts at ATGGCGCCCCTTTC

Another test addresses T3, HbG6PDH1 (Hevea brasiliensis, UniProt A0A068LLN2).
T3 construct: gene G6PDH-1; forward primer starts at ATGCCAAGAAAATATGG

In another test the target is T4, HbG6PDH3 (Hevea brasiliensis, UniProt A0A068LJY6).
T4 construct: gene G6PDH-3; primer with start codon ATGGGTTCGGGTCAGTGG

Setting [1] is: glucose-6-phosphate as co-substrate.

T1 sequence (A0A068LJB4 entry or part of it): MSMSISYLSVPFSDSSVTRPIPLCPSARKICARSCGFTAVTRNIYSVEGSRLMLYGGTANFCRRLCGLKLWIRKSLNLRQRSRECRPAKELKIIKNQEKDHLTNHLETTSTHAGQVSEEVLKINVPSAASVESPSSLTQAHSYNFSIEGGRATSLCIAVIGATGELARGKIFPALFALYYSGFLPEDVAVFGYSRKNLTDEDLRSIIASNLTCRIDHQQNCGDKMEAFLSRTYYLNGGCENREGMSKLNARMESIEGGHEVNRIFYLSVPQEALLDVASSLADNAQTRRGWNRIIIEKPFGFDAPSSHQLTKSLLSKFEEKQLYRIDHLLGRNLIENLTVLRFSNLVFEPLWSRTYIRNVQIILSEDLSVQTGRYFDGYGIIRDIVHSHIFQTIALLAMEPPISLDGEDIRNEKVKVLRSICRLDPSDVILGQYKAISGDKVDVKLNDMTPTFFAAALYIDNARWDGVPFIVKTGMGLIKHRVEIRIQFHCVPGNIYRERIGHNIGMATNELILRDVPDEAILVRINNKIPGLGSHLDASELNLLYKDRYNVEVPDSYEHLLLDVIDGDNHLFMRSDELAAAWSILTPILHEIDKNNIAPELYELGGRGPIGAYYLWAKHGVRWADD
T3 sequence (A0A068LLN2 entry or part of it): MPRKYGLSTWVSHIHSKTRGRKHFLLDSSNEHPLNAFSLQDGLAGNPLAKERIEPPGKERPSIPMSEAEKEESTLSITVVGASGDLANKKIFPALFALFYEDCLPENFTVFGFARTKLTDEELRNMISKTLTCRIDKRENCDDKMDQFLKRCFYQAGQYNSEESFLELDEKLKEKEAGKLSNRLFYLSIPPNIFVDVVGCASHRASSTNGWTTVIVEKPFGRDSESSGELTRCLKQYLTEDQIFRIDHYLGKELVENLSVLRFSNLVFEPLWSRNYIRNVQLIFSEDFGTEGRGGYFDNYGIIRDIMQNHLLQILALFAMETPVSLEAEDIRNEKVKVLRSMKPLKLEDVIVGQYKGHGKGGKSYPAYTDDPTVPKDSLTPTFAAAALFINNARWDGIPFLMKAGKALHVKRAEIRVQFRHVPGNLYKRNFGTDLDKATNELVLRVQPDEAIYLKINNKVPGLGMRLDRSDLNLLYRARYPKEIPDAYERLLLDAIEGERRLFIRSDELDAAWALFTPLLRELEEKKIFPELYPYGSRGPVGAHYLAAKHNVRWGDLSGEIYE
T4 sequence (A0A068LJY6 entry or part of it): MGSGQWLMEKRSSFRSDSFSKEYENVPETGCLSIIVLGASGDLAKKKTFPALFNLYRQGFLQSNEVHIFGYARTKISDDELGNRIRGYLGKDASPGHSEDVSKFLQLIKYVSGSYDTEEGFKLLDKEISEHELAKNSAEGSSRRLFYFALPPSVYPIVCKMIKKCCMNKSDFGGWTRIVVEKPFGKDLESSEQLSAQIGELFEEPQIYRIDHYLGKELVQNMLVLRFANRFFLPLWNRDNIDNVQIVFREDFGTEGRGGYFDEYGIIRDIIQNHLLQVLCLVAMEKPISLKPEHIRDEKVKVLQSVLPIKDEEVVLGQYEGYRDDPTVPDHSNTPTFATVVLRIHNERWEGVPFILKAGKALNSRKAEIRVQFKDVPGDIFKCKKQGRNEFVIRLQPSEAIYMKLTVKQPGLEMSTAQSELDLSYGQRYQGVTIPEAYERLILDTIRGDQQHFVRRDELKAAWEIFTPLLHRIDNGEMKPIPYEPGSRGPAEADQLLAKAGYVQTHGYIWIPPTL
T2 sequence (A0A068LJJ9 entry or part of it): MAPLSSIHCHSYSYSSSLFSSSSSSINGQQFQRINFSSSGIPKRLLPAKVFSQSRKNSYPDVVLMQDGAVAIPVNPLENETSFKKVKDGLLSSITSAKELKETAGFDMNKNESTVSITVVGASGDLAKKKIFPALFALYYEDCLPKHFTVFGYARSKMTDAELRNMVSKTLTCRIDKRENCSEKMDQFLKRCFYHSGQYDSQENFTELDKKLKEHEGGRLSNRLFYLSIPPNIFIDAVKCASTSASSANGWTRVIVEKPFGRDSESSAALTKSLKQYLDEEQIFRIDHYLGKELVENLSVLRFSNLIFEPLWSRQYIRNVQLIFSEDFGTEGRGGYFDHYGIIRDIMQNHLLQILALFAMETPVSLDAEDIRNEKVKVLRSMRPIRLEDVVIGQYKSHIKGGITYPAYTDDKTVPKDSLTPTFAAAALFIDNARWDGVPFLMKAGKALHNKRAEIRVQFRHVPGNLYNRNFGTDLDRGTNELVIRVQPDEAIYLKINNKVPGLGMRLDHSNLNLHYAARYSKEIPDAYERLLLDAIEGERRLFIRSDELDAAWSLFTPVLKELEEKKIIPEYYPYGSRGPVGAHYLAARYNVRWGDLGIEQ

Turning to `NC(=O)c1ccc[n+]([C@@H]2O[C@H](COP(=O)(O)OP(=O)(O)OC[C@H]3O[C@@H](n4cnc5c(N)ncnc54)[C@H](OP(=O)(O)O)[C@@H]3O)[C@@H](O)[C@H]2O)c1` [NADP^+], the “NADPH formation at 340 nm, commercial kit, E. coli supernatant” value on HbG6PDH4 (setting [1]), at HbG6PDH2 (setting [1]), on HbG6PDH1 (setting [1]) and at HbG6PDH3 (setting [1]) was “all four HbG6PDH genes encode enzymatically active G6PDHs” throughout.

On to `O=P(O)(O)OC[C@H]1OC(O)[C@H](O)[C@@H](O)[C@@H]1O` (some centres unmarked) [glucose-6-phosphate], for which the “NADPH formation at 340 nm, commercial kit, E. coli supernatant” value at HbG6PDH4 (NADP+ as co-substrate), at HbG6PDH2 (NADP+ as co-substrate), at HbG6PDH1 (NADP+ as co-substrate) and at HbG6PDH3 (NADP+ as co-substrate) was “all four HbG6PDH genes encode enzymatically active G6PDHs” throughout.
